Measurements from patent publication US20240002424A1, “HEXOSAMINE COMPOUNDS AND METHODS THEREOF” (National Institute of Immunology, priority 2021, published 2024).
“Also recorded” adds a separate entry of the source.

How the values were obtained:
Assay type in all cases: cell-based, human
HL-60 cells [1] = assay: Western blot of total lysates for sLeX (CSLEX1) epitopes; conditions: HL-60 total lysates; 50 μM, 72 h
Procedure: Effect of ManNAc analogues on expression of CD15s epitopes: HL-60 cells (3.0×10^5 cells/mL in 10 mL complete medium in 10 cm diameter petri dishes) were incubated with D, 1a, 1b, 1d, 1e, 1f, or 1g (50 mM), along with untreated (U) controls. After 72 h, cells were harvested, washed with PBS (3×5.0 mL), and lysed in RIPA buffer (10^7 cells in […]), containing protease inhibitor cocktail (PIC, 1:100). Protein concentration of the soluble fraction was estimated using the Bradford assay. Proteins from total lysates were resolved by 7.5% SDS-PAGE and blotted onto nitrocellulose membrane (constant current of 250 mA for 3.0 h at 4° C.). Membranes were blocked using non-fat milk (NFM) (5.0% w/v) in PBS and incubated with primary antibodies (5.0 mL PBS containing 5.0% NFM) overnight at 4° C. Membranes were washed with 0.1% PBS-T (0.1% v/v tween-20 in PBS; 3×5.0 mL, five min each at room temperature) followed by incubation with appropriate fluorophore or horse radish peroxidase (HRP) conjugated secondary antibodies for 1.0 h at room temperature. Membranes were washed with 0.1% PBS-T (3×5.0 mL, five min each) and then either directly scanned using Amersham Typhoon fluorescence scanner or developed on photographic films after treatment with enhanced chemiluminescence reagents. At least two independent replicate experiments were performed for all the blots.
The primary and secondary antibodies employed, along with dilution and stock concentration, are given below: Primary antibodies: Anti-CD15s (CSLEX1; IgM, dilution 1:5000; stock concentration 0.5 mg/mL) Anti-CLA (HECA452; IgM, dilution 1:1000, stock concentration 0.5 mg/mL) […] (AC15, IgG, dilution 1:20000, stock concentration 2.2 mg/mL); and Secondary Antibodies: AlexaFluor488-conjugated anti-mouse IgM (1:10000, stock concentration 2.0 mg/mL) AlexaFluor488-conjugated anti-rat IgM (1:10000, stock concentration 0.5 mg/mL) HRP-conjugated anti-mouse IgG (1:10000, stock concentration 0.8 mg/mL) Cy5-conjugated donkey anti-mouse IgG (1:10000, stock concentration 1.4 mg/mL) AlexaFluorplus488-conjugated anti-mouse IgG (1:10000, stock conc. 2.0 mg/mL).

HL-60 cells [2] = assay: Binding of mouse E-selectin-Fc chimera (mCD62E) to cells by flow cytometry; conditions: 50 μM, 72 h
Procedure: Effect of HexNAc analogues on the expression of E-selectin ligands: HL-60 cells (3.0×10^5 cells/mL in 2.5 mL complete medium in 6-well plates) were incubated with D, 1a, 1b, or 1d (50 mM), along with untreated controls. After 72 h, cells were harvested and washed with PBS (3×0.5 mL). Prior to the last wash, cells were counted and aliquoted into 5.0×10^5 cells per sample. Cells were stained with mCD62E-Fc chimera protein (10 mg/mL) in PBS (50 mL) at 4° C. After 1.0 h, cells were washed with PBS (2×0.5 mL) and stained with PEconjugated F(ab′)2 goat anti-human Fc in PBS (50 mL) at 4° C. After 1.0 h, cells were washed with PBS (2×0.5 mL) and resuspended in 0.85% saline (0.2 mL) containing Sytox Red (dilution 1:1000; stock concentration of 5.0 mM). Additionally, control samples of cells treated with only the secondary antibody were prepared. Two replicate samples were analyzed for each condition and each sample was counted twice by flow cytometry as mentioned above.

HL-60 cells [3] = assay: Anti-CLA (HECA452) antibody binding by flow cytometry; conditions: 50 μM, 24 h
Procedure: Effect of HexNAc analogues on the expression of cutaneous lymphocyte antigen (CLA/HECA452) epitopes: HL-60 cells (3.0×10^5 cells/mL in 2.5 mL complete medium in 6-well plates) were treated with D, 1a, 1b, or 1d (50 mM), including untreated controls. After 24 h cells were harvested, washed in PBS (3×0.5 mL), aliquoted to 5.0×10^5 cells per sample, and incubated with rat anti-human CLA (HECA452) antibody (5.0 mg/mL) in PBS (50 mL) at 4° C. After 1.0 h, cells were washed with PBS (2×0.5 mL) and stained with AlexaFluor488-conjugated anti-rat IgM (10 mg/mL) in PBS (50 mL) at 4° C. After 1.0 h, cells were washed with PBS (2×0.5 mL), resuspended in PBS (0.2 mL) and treated with PI (2.5 mg/mL). Additionally control samples of cells treated with (i) isotype antibody followed by secondary antibody and (ii) only secondary antibody were prepared. Cells were gated on PI-negative population and analyzed by flow cytometry as given above. Two replicate samples were analyzed for each condition and each sample was counted twice by flow cytometry as mentioned above.

HL-60 cells [4] = assay: Far-western blot of total lysates with biotinylated MAL-II; conditions: HL-60 lysates; 50 μM, 72 h
Procedure: After 72 h, cells were harvested and lyzed in RIPA buffer containing PIC. Protein concentration in the soluble fraction was estimated using Bradford assay, subjected to 10% SDS-PAGE, blotted onto nitrocellulose membranes (constant current 250 mA, 3 h, 4° C.). Membranes were blocked using 2% w/v gelatin (5.0 mL) in 0.1% PBS-T at room temperature. After 1h, membranes were incubated with either bMAL-II (1:2000, stock conc. 1.0 mg/mL) or bSNA (1:5000, stock conc. 2.0 mg/mL) in 0.1% PBS-T (5.0 mL) at room temperature. After 1 h, membranes were washed using 0.1% PBS-T (6×5.0 mL, 5.0 min), followed by incubation with HRPconjugated avidin (1:50000, stock conc. 2.0 mg/mL) in 0.1% PBS-T (5.0 mL). After 30 min, membranes were washed using 0.1% PBS-T (6×5.0 mL, 5.0 min). Blots were developed using enhanced chemiluminescence substrate and photographic films. Blots using anti-β-actin (as mentioned above) were performed in parallel as loading controls. At least two independent replicate experiments were performed.

CC(=O)NC1C(OC(C)=O)OC(COC(C)=O)[C@@H](OC(C)=O)[C@@H]1OC(C)=O (stereo partly drawn) [Compound 1d, 1,3,4,6-tetra-O-acetyl-2-acetylamino-2-deoxy-α/β-D-mannopyranose]
sLeX (CSLEX1) bands between 150-100 kDa in western blot (HL-60 cells [1]): negative for sLeX epitopes; also recorded: not detectable | change in mCD62E binding with respect to untreated cells (in words) (HL-60 cells [2]): no significant change | change in HECA-452 binding (in words) (HL-60 cells [3]): moderate increase | MAL-II epitopes in lectin blot (HL-60 cells [4]): below detection limit

CC(=O)OC[C@H]1O[C@H](OC(C)=O)[C@@H](NC(=O)C2CC2)[C@@H](OC(C)=O)[C@@H]1OC(C)=O [Compound 1a, 1,3,4,6-tetra-O-acetyl-2-cyclopropanoylamino-2-deoxy-α-D-mannopyranose]
sLeX (CSLEX1) bands between 150-100 kDa in western blot (HL-60 cells [1]): faint increase | change in mCD62E binding with respect to untreated cells (in words) (HL-60 cells [2]): no significant change | decrease in HECA-452 binding compared to untreated cells (HL-60 cells [3]): 40% | MAL-II epitopes in lectin blot (HL-60 cells [4]): slight increase

CC(=O)OC[C@H]1OC(OC(C)=O)[C@@H](NC(=O)C2CCC2)[C@@H](OC(C)=O)[C@@H]1OC(C)=O (stereo partly drawn) [Compound 1b, (3S,4R,5S,6R)-6-(acetoxymethyl)-3-(cyclobutanecarboxamido)tetrahydro-2H-pyran-2,4,5-triyl triacetate]
sLeX (CSLEX1) bands between 150-100 kDa in western blot (HL-60 cells [1]): Robust increase | increase in mCD62E (E-selectin-Fc) binding with respect to untreated cells (HL-60 cells [2]): 2.3 fold | decrease in HECA-452 binding compared to untreated cells (HL-60 cells [3]): 40% | MAL-II epitopes in lectin blot (HL-60 cells [4]): slight increase
